Reference: patent US12305162B2, “Method for expanding propagation of Metarhizium rileyi MR006 and use thereof” (priority 2023, dated 2025)

Legend:
Assay in all cases: Sub-lethal dose (LC25) of chlorantraniliprole on 2nd instar larvae
Type in all cases: in vivo
[1] = test system: Spodoptera frugiperda
[2] = test system: Spodoptera litura
[3] = test system: Helicoverpa armigera

CNC(=O)c1cc(Cl)cc(C)c1NC(=O)c1cc(Br)nn1-c1ncccc1Cl [chlorantraniliprole]
LC25 value [1]: 0.006 µg/g
LC25 value [2]: 0.008 µg/g
LC25 value [3]: 0.015 µg/g
